Columns and labels:
[1] = tested on: human stomach cancer cells (MKN-45); experiment: Experiment 9: pharmacokinetics (6 h) of Cupid-scFv antibody (24 h before)+^211At-psyche-BR in MKN-45 cancer-bearing mouse models; format: in vivo, mice (BALB/cSlc nu/nu); conditions: six hours after administration, tumor on Day 8 after transplantation
Description: The present experiment used human stomach cancer cells (MKN-45) expressing carcinoembryonic antigen (CEA). 9-week-old male immunodeficient mice (BALB/cSlc nu/nu) were used. MKN-45 cells (1×10^7/0.1 ml) were transplanted into the mice's subcutis on the right shoulder dorsal side to produce cancer-bearing mouse models. When the tumor volume became a predetermined size (on Day 8 after the transplantation), the Cupid-scFv antibody was administered 100 μmol/0.1 ml via the caudal vein of each mouse. Twenty-four hours after administration of the Cupid-scFv antibody, ^211At-psyche-BR (about 0.30 MBq/100 ml) was administered via the caudal vein of each mouse. […] After that, the weights of blood, plasma, urine, tumor, and normal tissues/organs were measured, and the radioactivity thereof was then measured using a γ counter. The amounts of the ^211At-psyche-BR (radioactivity) accumulated in the blood, plasma, urine, tumor, and normal tissues/organs were calculated. […] Regarding accumulation of the ^211At-psyche-BR in the thyroid gland, since the weight of the thyroid gland could not be precisely measured, it was shown that the rate (% ID) of the ^211At-psyche-BR accumulated in the thyroid gland in the administered ^211At-psyche-BR.

[2] = tested on: human stomach cancer cells (MKN-45); experiment: Experiment 6: pharmacokinetics of Cupid-scFv antibody (48 h before)+^211At-psyche-BR in MKN-45 cancer-bearing mouse models; format: in vivo, mice (BALB/cSlc nu/nu)
Description: The present experiment used human stomach cancer cells (MKN-45) expressing carcinoembryonic antigen (CEA). 9-week-old male immunodeficient mice (BALB/cSlc nu/nu) were used. MKN-45 cells (1×10^7/0.1 ml) were transplanted into the mice's subcutis on the right shoulder dorsal side to produce cancer-bearing mouse models. The mice were divided into four groups when the tumor volume became a predetermined size (on Day 12 after the transplantation), and the Cupid-scFv antibody was administered 100 μmol/0.1 ml via the caudal vein of each mouse. Forty-eight hours after administration of the Cupid-scFv antibody, […] (about 0.25 MBq/100 ml) was administered via the caudal vein of each mouse. One minute, 1 hour, 6 hours, and 24 hours after administration of the ^211At-psyche-BR, the mice were euthanized by collecting whole blood from the heart of each mouse under isoflurane anesthesia, and tumor tissues and normal tissues/organs were then excised. Normal tissues/organs: skin (lower right limb), muscle (right gastrocnemius muscle), heart, lung, spleen, pancreas, white fat (upper portion of right side testis), testis (both sides), stomach, stomach contents, small intestine (not including contents), large intestine (not including contents), liver, brown fat (interscapular), submandibular gland, thyroid gland (together with trachea), bone (right femur), cerebrum, eyeballs (both sides), bladder, and urine; the remaining residues were divided into three equal parts, and the three equal parts were defined to be residue-1, residue-2, and residue-3. After that, the weights of blood, plasma, urine, tumor, and normal tissues/organs were measured, and the radioactivity thereof was then measured using a γ counter. The amounts of the ^211At-psyche-BR (radioactivity) accumulated in the blood, plasma, urine, tumor, and normal tissues/organs were calculated. That is to say, the rates (% ID/g) of the ^211At-psyche-BR accumulated per unit weight (g) of the blood, plasma, urine, tumor, and normal tissues/organs, in the administered ^211At-psyche-BR were shown. Regarding accumulation of the ^211At-psyche-BR in the thyroid gland, since the weight of the thyroid gland could not be precisely measured, it was shown that the rate (% ID) of the ^211At-psyche-BR accumulated in the thyroid gland in the administered ^211At-psyche-BR.

Structure (SMILES): N=C1N[C@H]2[C@H](CS[C@H]2CCCCNC(=O)CCCCCC(=O)Nc2cc(NC(=O)CCCCCC(=O)NCCCC[C@@H]3SC[C@@H]4NC(=N)N[C@@H]43)cc(C(=O)NCCOCCOCCNC(=O)c3cccc([211At])c3)c2)N1 [^211At-psyche-BR]
- Accumulation in the tumor [1]: 31.0±3.4 % ID/g
- Accumulation in the blood ([2]; after 1 minute): 26.4±2.7 % ID/g
- Accumulation in the kidney ([2]; after 1 minute): 81.7±11.8 % ID/g
- Accumulation in the liver ([2]; after 1 minute): 31.5±4.3 % ID/g
- Accumulation in the lung ([2]; after 1 minute): 9.5±0.4 % ID/g
- Accumulation in the spleen ([2]; after 1 minute): 3.4±0.2 % ID/g
- Accumulation in the tumor ([2]; after 1 minute): 0.5±0.0 % ID/g
- tumor-to-blood ratio ([2]; after 1 minute): 0.02±0.00
- tumor-to-muscle ratio ([2]; after 1 minute): 1.30±0.06
- Accumulation in the blood ([2]; after 1 hour): 30.6±3.2 % ID/g
- Accumulation in the kidney ([2]; after 1 hour): 54.5±4.0 % ID/g
- Accumulation in the liver ([2]; after 1 hour): 19.8±1.3 % ID/g
- Accumulation in the lung ([2]; after 1 hour): 12.7±0.6 % ID/g
- Accumulation in the spleen ([2]; after 1 hour): 6.8±0.3 % ID/g
- Accumulation in the tumor ([2]; after 1 hour): 3.2±0.5 % ID/g
- tumor-to-blood ratio ([2]; after 1 hour): 0.10±0.01
- tumor-to-muscle ratio ([2]; after 1 hour): 5.13±0.67
- Accumulation in the blood ([2]; after 6 hours): 22.7±2.7 % ID/g
- Accumulation in the kidney ([2]; after 6 hours): 15.0±2.3 % ID/g
- Accumulation in the liver ([2]; after 6 hours): 18.7±2.7 % ID/g
- Accumulation in the lung ([2]; after 6 hours): 7.5±3.3 % ID/g
- Accumulation in the spleen ([2]; after 6 hours): 9.7±1.0 % ID/g
- Accumulation in the tumor ([2]; after 6 hours): 9.3±1.4 % ID/g
- tumor-to-blood ratio ([2]; after 6 hours): 0.42±0.11
- tumor-to-muscle ratio ([2]; after 6 hours): 11.42±1.05
- Accumulation in the thyroid gland ([2]; after 24 h): 0.19±0.03 % ID
- Accumulation in the blood ([2]; after 24 hours): 1.6±1.0 % ID/g
- Accumulation in the kidney ([2]; after 24 hours): 5.6±1.0%
- Accumulation in the liver ([2]; after 24 hours): 8.9±1.7%
- Accumulation in the lung ([2]; after 24 hours): 2.9±0.3%
- Accumulation in the spleen ([2]; after 24 hours): 4.6±1.6%
- Accumulation in the tumor ([2]; after 24 hours): 7.4±2.3%
- administered amount excreted (blood) ([2]; after 24 hours): about 98%
- tumor-to-blood ratio ([2]; after 24 hours): 5.39±1.56
- tumor-to-muscle ratio ([2]; after 24 hours): 27.98±2.34
